Assay results published in ChEMBL document CHEMBL1201862, “PubChem BioAssay data set” (2004).
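Cultured in 96-well plates, cells were exposed to test compound for 48 hours across five concentrations. GI50 = concentration required for 50% inhibition of growth.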 Activity calls are given as the source filed them. Cut-off read from the data, not from the text of the source: active = GI50 up to about 1.1 µM and inactive = higher.

Tests used:
Experiment in all cases: growth of human tumour cells (NCI), 48 h
CCRF-CEM = tested on: CCRF-CEM
DLD-1 = tested on: DLD-1
HOP-62 = tested on: HOP-62
HT-29 = tested on: HT-29
LOX IMVI = tested on: LOX IMVI
MOLT-4 = tested on: MOLT-4
OVCAR-8 = tested on: OVCAR-8
SF-268 = tested on: SF-268
SN12C = tested on: SN12C
SNB-75 = tested on: SNB-75
TK-10 = tested on: TK-10
U-251 = tested on: U-251
UACC-62 = tested on: UACC-62
OVCAR-5 = tested on: OVCAR-5
A498 = tested on: A498
BT-549 = tested on: BT-549
DU-145 = tested on: DU-145
MDA-MB-231 = tested on: MDA-MB-231
MDA-N = tested on: MDA-N
PC-3 = tested on: PC-3

Compound | GI50 (CCRF-CEM) | GI50 (DLD-1) | GI50 (HOP-62) | GI50 (HT-29) | GI50 (LOX IMVI) | GI50 (MOLT-4) | GI50 (OVCAR-8) | GI50 (SF-268) | GI50 (SN12C) | GI50 (SNB-75) | GI50 (TK-10) | GI50 (U-251) | GI50 (UACC-62) | GI50 (OVCAR-5) | GI50 (A498) | GI50 (BT-549) | GI50 (DU-145) | GI50 (MDA-MB-231) | GI50 (MDA-N) | GI50 (PC-3)
CC(C)COC1Sc2ccccc2S1 | 27.7 µM (inactive) | 16.4 µM (inactive) | 21.4 µM (inactive) | 13.1 µM (inactive) | 12.7 µM (inactive) | 5.05 µM (inactive) | 29.1 µM (inactive) | 23.1 µM (inactive) | 18.8 µM (inactive) | 1.32 µM (inactive) | 21.5 µM (inactive) | 18.7 µM (inactive) | 4.91 µM (inactive) |  |  |  |  |  |  | 
O/N=C1/CCC/C1=C\c1ccccc1 | > 100 µM (inactive) | > 100 µM (inactive) | > 100 µM (inactive) | > 10 µM (inactive) | > 100 µM (inactive) | 42.6 µM (inactive) | > 100 µM (inactive) | > 100 µM (inactive) | > 100 µM (inactive) | 18.5 µM (inactive) | > 100 µM (inactive) | > 100 µM (inactive) | > 100 µM (inactive) | 67.5 µM (inactive) |  |  |  |  |  | 
C=C(Br)C(C)(Cl)CCC(Br)C(C)(C)Br (configuration not stated) | 22.5 µM (inactive) | 91.8 µM (inactive) | > 100 µM (inactive) | 47.2 µM (inactive) | 16.6 µM (inactive) | 31 µM (inactive) | > 100 µM (inactive) |  | > 100 µM (inactive) | 46 µM (inactive) | > 100 µM (inactive) | 88.9 µM (inactive) | 47.6 µM (inactive) | 37.2 µM (inactive) |  |  |  |  |  | 
COc1cc(C(C)O)c[n+](CCC2CNc3ccccc32)c1 (configuration not stated) | > 100 µM (inactive) | > 100 µM (inactive) | > 100 µM (inactive) | 71.6 µM (inactive) | > 100 µM (inactive) | > 100 µM (inactive) | > 100 µM (inactive) | 27 µM (inactive) | > 100 µM (inactive) | > 100 µM (inactive) |  | > 100 µM (inactive) | > 100 µM (inactive) |  | > 100 µM (inactive) |  |  |  |  | 
CCOC(=O)[C@H]1Nc2ccc(Cl)cc2[C@H]2c3ccccc3O[C@H]21 |  | 63 µM (inactive) | > 100 µM (inactive) | 99.3 µM (inactive) | > 100 µM (inactive) | > 100 µM (inactive) | > 100 µM (inactive) | > 100 µM (inactive) | > 100 µM (inactive) | 47.4 µM (inactive) | 39.8 µM (inactive) | > 100 µM (inactive) | 41.8 µM (inactive) | > 100 µM (inactive) |  |  |  |  |  | 
O=C(NC(=S)Nc1ccc([N+](=O)[O-])cc1)c1ccc2c(c1)Sc1ccccc1O2 | > 100 µM (inactive) |  | 78.5 µM (inactive) | > 100 µM (inactive) | > 100 µM (inactive) | > 100 µM (inactive) | > 100 µM (inactive) | 30.2 µM (inactive) | > 100 µM (inactive) | 13.8 µM (inactive) | 44.2 µM (inactive) | 37 µM (inactive) | 71.3 µM (inactive) | > 100 µM (inactive) | > 100 µM (inactive) | > 100 µM (inactive) | > 100 µM (inactive) | > 100 µM (inactive) | > 100 µM (inactive) | > 100 µM (inactive)
Cc1ccc2c(/C=C/c3ccc(N(C)C)cc3)ccc(C(C)C)cc1-2 | 37.2 µM (inactive) |  | > 100 µM (inactive) | 49.1 µM (inactive) | > 100 µM (inactive) | > 100 µM (inactive) | > 100 µM (inactive) | > 100 µM (inactive) | > 100 µM (inactive) | > 100 µM (inactive) | > 100 µM (inactive) | > 100 µM (inactive) | > 100 µM (inactive) | > 100 µM (inactive) | 83.4 µM (inactive) | > 100 µM (inactive) | > 100 µM (inactive) | > 100 µM (inactive) | > 100 µM (inactive) | > 100 µM (inactive)
Cn1c(=O)sc2cc(C(=S)N3CCN(c4ccccc4)CC3)ccc21 | 40.7 µM (inactive) |  | 18.5 µM (inactive) | > 100 µM (inactive) | 53.5 µM (inactive) | > 100 µM (inactive) | 38.4 µM (inactive) | 29.9 µM (inactive) | 50.6 µM (inactive) | 28.7 µM (inactive) | 71.9 µM (inactive) | 16 µM (inactive) | 31.8 µM (inactive) | 97.1 µM (inactive) | > 100 µM (inactive) | 60.7 µM (inactive) | > 100 µM (inactive) | 27.6 µM (inactive) | > 100 µM (inactive) | 31.3 µM (inactive)
COc1ccc(C(=O)/C=C/c2ccc(O)c(O)c2F)c(OC)c1 | 0.44 µM (active) |  | 4.36 µM (inactive) | 8.97 µM (inactive) | 5.61 µM (inactive) | 1.12 µM (inactive) | 7.76 µM (inactive) | 2.99 µM (inactive) | 3.89 µM (inactive) | 7.52 µM (inactive) | 9.18 µM (inactive) | 2.94 µM (inactive) | 7.69 µM (inactive) | 10.7 µM (inactive) | 8.51 µM (inactive) | 5.38 µM (inactive) | 3.44 µM (inactive) | 9.82 µM (inactive) | 3.23 µM (inactive) | 3.14 µM (inactive)
Cc1cn(C2CCN(CC3COC(C)(C)O3)O2)c(=O)[nH]c1=O (configuration not stated) | > 100 µM (inactive) |  | > 100 µM (inactive) | > 100 µM (inactive) | > 100 µM (inactive) | > 100 µM (inactive) | > 100 µM (inactive) | > 100 µM (inactive) | > 100 µM (inactive) | > 100 µM (inactive) | > 100 µM (inactive) | > 100 µM (inactive) | > 100 µM (inactive) | > 100 µM (inactive) | > 100 µM (inactive) | > 100 µM (inactive) | > 100 µM (inactive) | > 100 µM (inactive) | > 100 µM (inactive) | > 100 µM (inactive)
Nc1ncnc2c1ncn2[C@]1(CO)C=C(CO)C(O)C1O (some centres not stated) |  | > 100 µM (inactive) | 52.5 µM (inactive) | > 100 µM (inactive) | > 100 µM (inactive) | > 100 µM (inactive) |  | > 100 µM (inactive) | > 100 µM (inactive) | > 100 µM (inactive) | > 100 µM (inactive) | > 100 µM (inactive) |  | 80.4 µM (inactive) | > 100 µM (inactive) |  |  |  |  | 
Cc1ccc(NC(=O)CCc2nc(N)nc(N)c2-c2ccccc2)cc1C | > 100 µM (inactive) | > 100 µM (inactive) | > 100 µM (inactive) | > 100 µM (inactive) |  | > 100 µM (inactive) | > 100 µM (inactive) | > 100 µM (inactive) | > 100 µM (inactive) | 58.7 µM (inactive) | > 100 µM (inactive) | > 100 µM (inactive) | > 100 µM (inactive) | > 100 µM (inactive) | > 100 µM (inactive) |  |  |  |  | 
CC(Cl)(CCC(Cl)C(C)(C)Cl)C(=O)CBr (configuration not stated) | 0.877 µM (active) |  | 18.2 µM (inactive) | 13.1 µM (inactive) | 2.06 µM (inactive) | 1.21 µM (inactive) | 10.5 µM (inactive) | 16.7 µM (inactive) | 14.7 µM (inactive) | 13.6 µM (inactive) | 11.8 µM (inactive) | 15.6 µM (inactive) | 10.1 µM (inactive) | 17.5 µM (inactive) | 17.2 µM (inactive) | 14.2 µM (inactive) | 19.5 µM (inactive) | 11.1 µM (inactive) | 8.2 µM (inactive) | 14.6 µM (inactive)
c1ccc(C(Oc2noc3ccccc23)c2ccccc2)cc1 | 15.9 µM (inactive) |  | 88.5 µM (inactive) | 36.7 µM (inactive) | 38.7 µM (inactive) | 14.8 µM (inactive) | 45.3 µM (inactive) | 65.8 µM (inactive) | 35.7 µM (inactive) | 12.6 µM (inactive) | 47.6 µM (inactive) | 31.7 µM (inactive) | 31.8 µM (inactive) | 51.4 µM (inactive) | 39 µM (inactive) | 32.1 µM (inactive) | 34 µM (inactive) | 36.2 µM (inactive) | 19.9 µM (inactive) | 34.4 µM (inactive)
CC1=NN(c2nc(N)nc(/C(C#N)=C\c3ccc([N+](=O)[O-])s3)n2)C(C)(C)C1 | 0.0175 µM (active) |  | 0.316 µM (active) | 0.265 µM (active) | 0.157 µM (active) | 0.138 µM (active) | 0.113 µM (active) | 0.408 µM (active) | 0.363 µM (active) | 0.764 µM (active) | 0.507 µM (active) | 0.104 µM (active) | 0.861 µM (active) | 3.46 µM (inactive) | 7.78 µM (inactive) | 0.701 µM (active) | 0.24 µM (active) | 0.22 µM (active) | 0.34 µM (active) | 0.165 µM (active)
Cc1ccc(S(=O)(=O)OCC23CCC(C2)C2CC23)cc1 (configuration not stated) | > 100 µM (inactive) | > 100 µM (inactive) | > 100 µM (inactive) | > 100 µM (inactive) | > 100 µM (inactive) | > 100 µM (inactive) | > 100 µM (inactive) | > 100 µM (inactive) | > 100 µM (inactive) |  | > 100 µM (inactive) | > 100 µM (inactive) | > 100 µM (inactive) | > 100 µM (inactive) | > 100 µM (inactive) |  |  |  |  | 
COc1ccc(C[C@H]2NC[C@H](OC(C)=O)[C@H]2OC(C)=O)cc1 | 0.126 µM (active) |  | 0.195 µM (active) | 0.183 µM (active) | 0.067 µM (active) | 0.205 µM (active) | 0.191 µM (active) | 0.0614 µM (active) | 0.124 µM (active) | 0.0721 µM (active) | 0.31 µM (active) | 0.304 µM (active) | 0.288 µM (active) | 0.122 µM (active) | 0.302 µM (active) | 0.171 µM (active) | 0.0726 µM (active) | 0.308 µM (active) | 0.133 µM (active) | 0.21 µM (active)
